In US20120122854A1, “Carbocyclic Fused Cyclic Amines” (priority 2005, published 2012) one finds Ki data, which are given here for 3 molecules.

This experiment deals with T1, human factor Xa (Homo sapiens, UniProt P00742).
T1 construct: purchased Enzyme Research Laboratories
Description: Factor Xa chromogenic peptide substrate (S-2222) assay. The experiment is classed as biochemical. To be noted: human factor Xa 3 nM, chromogenic substrate S-2222, pH 7.8, room temperature; apparent Ki from IC50 by Cheng-Prusoff. The protocol:
Factor Xa activity was measured spectrophotometrically in microtiter plates in a final volume of 150 μl using the following conditions: Inhibition of human factor Xa (Enzyme Research Laboratories) was tested at an enzyme concentration of 3 nM using the chromogenic substrate S-2222 (Chromogenix AB, Mölndal, Sweden) at […]. The reaction kinetics of the enzyme and the substrate were linear with both time and the enzyme concentration. The inhibitors were dissolved in DMSO and tested at various concentrations up to 100 μM. The inhibitors were diluted using HNPT buffer consisting of HEPES100 mM, NaCl 140 mM, PEG 6000 0.1% and Tween 80 0.02%, pH 7.8. The cleavage of S-2222 by human factor Xa was followed at 405 nm for 5 minutes at room temperature. The velocity of the reaction was determined by the autoreader from the slope of the linear regression fit to 7 time points (1 minute). The initial velocity for each inhibitor concentration was determined by the slope of at least 4 time points in the linear phase by a linear regression fit […]. Apparent dissociation constants Ki were calculated according to Cheng and Prusoff [Cheng, Y. C.; Prusoff, W. H. Relationship between the inhibition constant (Ki) and the concentration of the inhibitor that causes 50 percent inhibition (IC50) of an enzyme reaction. Biochem. Pharmacol. 1973, 22, 3099-3108.] based on the IC50 and the respective Km, determined previously (Ki=IC50/(1+S/Km)). The Km for the substrate used was determined under the conditions of the test with at least 5 substrate concentrations ranging from 0.5 to 15 times Km. [Lottenberg R, Hall J A, Blinder M, Binder E P, Jackson C M., The action of thrombin on peptide p-nitroanilide substrates. Substrate selectivity and examination of hydrolysis under different reaction conditions. Biochim Biophys Acta. 1983 Feb. 15; 742(3):539-57]. According to Eadie [Eadie G. S. The inhibition of cholinesterase by physostigmine and prostigmine. J. Biol. Chem. 1942, 146, 85-93.], the Km for S-2222 amounted to 613 μM.

T1 sequence (P00742 235-488 limits assumed): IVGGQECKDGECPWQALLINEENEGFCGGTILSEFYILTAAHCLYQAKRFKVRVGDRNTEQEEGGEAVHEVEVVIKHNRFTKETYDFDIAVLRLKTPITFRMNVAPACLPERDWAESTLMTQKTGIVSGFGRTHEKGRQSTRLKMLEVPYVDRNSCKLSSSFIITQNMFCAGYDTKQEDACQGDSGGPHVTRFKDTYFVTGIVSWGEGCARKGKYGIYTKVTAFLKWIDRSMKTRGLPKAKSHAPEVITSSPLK
T1 sequence (P00742 41-179 partner limits assumed): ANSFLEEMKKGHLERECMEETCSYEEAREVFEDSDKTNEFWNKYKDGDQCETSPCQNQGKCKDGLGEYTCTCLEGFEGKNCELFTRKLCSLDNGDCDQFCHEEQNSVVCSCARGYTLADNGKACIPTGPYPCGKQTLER

For `O=C(Nc1ccc(-n2ccccc2=O)cc1)C1c2ccccc2CN1C(=O)Nc1ccc(Cl)cc1` (stereo in doubt) [Example 4, (S)-1,3-Dihydro-isoindole-1,2-dicarboxylic acid 2-[(4-chloro-phenyl)-amide]1-{[4-(2-oxo-2H-pyridin-1-yl)-phenyl]-amide}], the Ki came to 2 nM. The value for `O=C(Nc1ccc(-n2ccccc2=O)cc1F)[C@H]1Cc2ccccc2CN1C(=O)Nc1ccc(Cl)cc1` [Example 25, (R)-3,4-Dihydro-1H-isoquinoline-2,3-dicarboxylic acid 2-[(4-chloro-phenyl)-amide]3-{[2-fluoro-4-(2-oxo-2H-pyridin-1-yl)-phenyl]-amide}] was 2 nM; that for `O=C(NCC1CN(C(=O)Nc2ccc(-n3ccccc3=O)cc2F)c2cccc(Cl)c21)c1ccc(Cl)s1` (stereo not drawn) [Example 44, 4-Chloro-3-{[(5-chloro-thiophene-2-carbonyl)-amino]-methyl}-2,3-dihydro-indole-1-carboxylic acid [2-fluoro-4-(2-oxo-2H-pyridin-1-yl)-phenyl]-amide] was 2 nM.
